Laboratory results reported in ChEMBL document CHEMBL5154820 (Eur J Med Chem, 2022).

Tests used:
HeLa [1] = assay: Antitumor activity against human HeLa cells xenografted in BABL/c mouse assessed assessed as reduction in tumor volume at 30 mg/kg, ip administered daily for 21 days followed by addition of 3 mg/kg DDP for every 2 days and measured every 3 days ( Rvb = 2336 mm3); assay type: functional; settings: time 21 day
HeLa [2] = assay: Induction of cell cycle arrest in human HeLa cells assessed as >4N cells at 0.1 uM measured after 24 hrs by propidium iodide staining based flow cytometric analysis analysis ( Rvb = 8.84%); assay type: functional
HeLa [3] = assay: Induction of apoptosis in human HeLa cells assessed as late apoptotic cells at 0.1 uM measured after 24 hrs by Annexin V-FITC/7-AAD staining based flow cytometric analysis (reference value: 8.51%); assay type: functional
Tubulin (Homo sapiens) [4] = target: T1, Tubulin (Homo sapiens) (UniProt P68371+Q9H4B7+P0DPH7+P68366+Q13509+Q71U36+P04350+Q3ZCM7+P07437+P68363+Q9BQE3+Q6PEY2+Q13885+Q9BVA1+Q9BUF5); assay: Induction of microtubule disruption in human HeLa cells assessed as loss of cellular structure at 0.1 to 0.2 uM measured after 24 hrs by DAPI staining based laser scanning confocal microscopic analysis; assay type: cell-based; settings: dose 0.1-0.2 µM, DDE = dose-dependent effect
[5] = Acute toxicity in ICR female mouse assessed as body weight gain at 100 to 1000 mg/kg, ip measured daily for 14 days; assay type: organism-based; settings: in vivo, 336 h, dose 100-1000 mg/kg, time 14 day
Tubulin = Tubulin (Sus scrofa, UniProt P02554+P02550); assay: Inhibition of pig brain tubulin polymerization by spectrophotometeric analysis; parameters: species or system Sus scrofa domesticus
HeLa [6] = assay: Induction of apoptosis in human HeLa cells assessed as necrotic cells at 0.2 uM measured after 24 hrs by Annexin V-FITC/7-AAD staining based flow cytometric analysis (reference value: 0.56%); assay type: functional
[7] = Nephrotoxicity in BABL/c mouse assessed as increased urea nitrogen level at 30 mg/kg, ip administered daily for 21 days relative to vehicle; assay type: toxicity, organism-based; settings: in vivo, 504 h, time 21 day
HeLa [8] = assay: Potency index, ratio of cisplatin IC50 to test compound IC50 for cytotoxicity against human DDP resistant HeLa cells; assay type: functional
HeLa [9] = assay: Antimigratory activity against human HeLa cells at 0.2 uM measured after 24 hrs by scratch wound healing based fluorescence inverted microscopic analysis; assay type: functional
HeLa [10] = assay: Induction of cell cycle arrest in human HeLa cells assessed as 2N cells at 0.2 uM measured after 24 hrs by propidium iodide staining based flow cytometric analysis analysis ( Rvb = 47.4%); assay type: functional
HeLa [11] = assay: Induction of cell cycle arrest in human HeLa cells assessed as S-phase at 0.4 uM measured after 24 hrs by propidium iodide staining based flow cytometric analysis analysis ( Rvb = 15.5%); assay type: functional
HeLa [12] = assay: Induction of cell cycle arrest in human HeLa cells assessed as 4N cells at 0.2 uM measured after 24 hrs by propidium iodide staining based flow cytometric analysis analysis ( Rvb = 20.3%); assay type: functional
[13] = Toxicity against BABL/c mouse assessed as morphological changes in heart at 30 to 60 mg/kg, ip administered daily for 21 days by H and E staining method; assay type: organism-based; settings: in vivo, 504 h, dose 30-60 mg/kg, time 21 day
HeLa [14] = assay: Antitumor activity against human HeLa cells xenografted in BABL/ mouse assessed as tumor growth inhibition at 60 mg/kg, ip administered daily for 21 days relative to control; assay type: functional; settings: 504 h, time 21 day, read-out: TGI
HeLa [15] = assay: Induction of cell cycle arrest in human HeLa cells assessed as >4N cells at 0.4 uM measured after 24 hrs by propidium iodide staining based flow cytometric analysis analysis ( Rvb = 8.84%); assay type: functional
HeLa [16] = assay: Induction of cell cycle arrest in human HeLa cells assessed as < 2N cells at 0.1 uM measured after 24 hrs by propidium iodide staining based flow cytometric analysis analysis ( Rvb = 7.07%); assay type: functional
[17] = Toxicity against BABL/c mouse assessed as morphological changes in lung at 30 mg/kg, ip administered daily for 21 days followed by addition of 3 mg/kg DDP for every 2 days by H and E staining method; assay type: organism-based; settings: in vivo, 504 h, time 21 day
Tubulin (Homo sapiens) [18] = target: T1, Tubulin (Homo sapiens); assay: Induction of microtubule disruption in human HeLa cells assessed as loss of formation of cell membrane rounding at 0.1 to 0.2 uM measured after 24 hrs by DAPI staining based laser scanning confocal microscopic analysis; settings: dose 0.1-0.2 µM, DDE = dose-dependent effect
HeLa [19] = assay: Induction of apoptosis in human HeLa cells assessed as viable cells at 0.2 uM measured after 24 hrs by Annexin V-FITC/7-AAD staining based flow cytometric analysis (reference value: 70.1%); assay type: functional; settings: read-out: Activity
HeLa [20] = assay: Induction of apoptosis in human HeLa cells assessed as viable cells at 0.4 uM measured after 24 hrs by Annexin V-FITC/7-AAD staining based flow cytometric analysis (reference value: 70.1%); assay type: functional; settings: read-out: Activity
[21] = Toxicity against BABL/c mouse assessed as morphological changes in kidney at 30 mg/kg, ip administered daily for 21 days followed by addition of 3 mg/kg DDP for every 2 days by H and E staining method; assay type: organism-based; settings: in vivo, 504 h, time 21 day
HeLa [22] = assay: Induction of apoptosis in human HeLa cells assessed as necrotic cells at 0.4 uM measured after 24 hrs by Annexin V-FITC/7-AAD staining based flow cytometric analysis (reference value: 0.56%); assay type: functional
HeLa [23] = assay: Induction of cell cycle arrest in human HeLa cells assessed as >4N cells at 0.2 uM measured after 24 hrs by propidium iodide staining based flow cytometric analysis analysis ( Rvb = 8.84%); assay type: functional
HUVEC = assay: Vascular disruptive activity against HUVEC-formed vascular tube assessed as damage of vascular tube on matrigel substratum at 0.2 uM measured after 2 hrs; assay type: functional, Homo sapiens
HeLa [24] = assay: Induction of cell cycle arrest in human HeLa cells assessed as < 2N cells at 1.5 nM measured after 24 hrs by propidium iodide staining based flow cytometric analysis analysis ( Rvb = 9.32%); assay type: functional
HeLa [25] = assay: Induction of cell cycle arrest in human HeLa cells assessed as accumulation of cells at G2/M phase at 1.5 nM after 24 hrs by propidium iodide staining based flow cytometric analysis (reference value: 17.1%); assay type: functional
HeLa [26] = assay: Induction of cell cycle arrest in human HeLa cells assessed as accumulation of cells at G2/M phase at 3 nM after 24 hrs by propidium iodide staining based flow cytometric analysis (reference value: 17.1%); assay type: functional
HeLa [27] = assay: Induction of apoptosis in human HeLa cells assessed as viable cells at 3 nM measured after 24 hrs by Annexin V-FITC/7-AAD staining based flow cytometric analysis (reference value: 75.5%); assay type: functional; settings: read-out: Activity
HeLa [28] = assay: Antimigratory activity against human HeLa cells at 3 nM measured after 24 hrs by scratch wound healing based fluorescence inverted microscopic analysis; assay type: functional
HeLa [29] = assay: Induction of cell cycle arrest in human HeLa cells assessed as accumulation of cells at G2/M phase at 6 nM after 24 hrs by propidium iodide staining based flow cytometric analysis (reference value: 17.1%); assay type: functional
HeLa [30] = assay: Induction of apoptosis in human HeLa cells assessed as necrotic cells at 6 nM measured after 24 hrs by Annexin V-FITC/7-AAD staining based flow cytometric analysis (reference value: 0.45%); assay type: functional

CCOc1ccc(-c2cncnc2-c2cc(OC)c(OC)c(OC)c2)cc1Cl
Activity (HeLa [1]): 724 mm3 | Activity (HeLa [2]): 21.6% | Activity (HeLa [3]): 7.29% | Activity (Tubulin (Homo sapiens) [4]): Dde | Activity [5]: 3.88 g | IC50 (Tubulin): 4.6 µM | Activity (HeLa [6]): 0.52% | Activity [7]: 1.3% | Ratio IC50 (HeLa [8]): 2.7 | Activity (HeLa [9]): 40% | Activity (HeLa [10]): 0.82% | Activity (HeLa [11]): 11.4% | Activity (HeLa [12]): 47.6% | Activity [13]: Non-Toxic | inhibition in vivo at 60 mg/kg (HeLa [14]): 58% | Activity (HeLa [15]): 1.58% | Activity (HeLa [16]): 7.04% | Activity [17]: Non-Toxic | Activity (Tubulin (Homo sapiens) [18]): Dde | viability at 0.2 µM (HeLa [19]): 26.4% | viability at 0.4 µM (HeLa [20]): 11.5% | Activity [21]: Non-Toxic | Activity (HeLa [22]): 0.11% | Activity (HeLa [23]): 17.4%

COc1ccc(/C=C\c2cc(OC)c(OC)c(OC)c2)cc1O [COMBRETASTATIN A4]
Activity (HUVEC): 100% | Activity (HeLa [24]): 4.37% | Activity (HeLa [25]): 22.5% | Activity (HeLa [26]): 28.2% | viability at 0.003 µM (HeLa [27]): 44.7% | Activity (HeLa [28]): 57% | Activity (HeLa [29]): 35.3% | Activity (HeLa [30]): 0.62%
